Laboratory results published in patent US20110136193A1, “METHOD FOR PRODUCING BUTANOL USING EXTRACTIVE FERMENTATION WITH OSMOLYTE ADDITION” (BUTAMAX(TM) ADVANCED BIOFUELS LLC, priority 2009, published 2011).

B1: sadB: butanol dehydrogenase from Achromobacter xylosoxidans (protein SEQ ID NO: 10), expressed in E. coli Mach 1 cells (protein)
chain: MKALVYHGDHKISLEDKPKPTLQKPTDVVVRVLKTTICGTDLGIYKGKNPEVADGRILGHEGVGVIEEVGESVTQFKKGDKVLISCVTSCGSCDYCKKQLYSHCRDGGWILGYMIDGVQAEYVRIPHADNSLYKIPQTIDDEIAVLLSDILPTGHEIGVQYGNVQPGDAVAIVGAGPVGMSVLLTAQFYSPSTIIVIDMDENRLQLAKELGATHTINSGTENVVEAVHRIAAEGVDVAIEAVGIPATWDICQEIVKPGAHIANVGVHGVKVDFEIQKLWIKNLTITTGLVNTNTTPMLMKVASTDKLPLKKMITHRFELAEIEHAYQVFLNGAKEKAMKIILSNAGAA
modifications: Achromobacter xyloxidans

Tests used:
[1] = Partition coefficient (Kp) of isobutanol between oleyl alcohol extractant and sucrose-supplemented basal fermentation medium; format: physicochemical; conditions: oleyl alcohol / BFM, 30° C.
Experimental: The purpose of this Example was to evaluate the effect of sucrose concentrations in the fermentation medium on the partition coefficient (Kp) of isobutanol when oleyl alcohol was used as the extractant. The basal fermentation medium (BFM) typically used in E. coli fermentations was used as the fermentation medium in this Example.
The following experimental procedure was used to generate the data in Table 3. In these Kp measurement experiments, a specified amount of sucrose was added as an osmolyte to the basal fermentation medium. To 30 mL of the sucrose-supplemented BFM, 10 mL of isobutanol rich oleyl alcohol (OA) extractant containing 168 g/L of isobutanol was added and mixed vigorously for 4 and 8 hours at 30° C. with shaking at 250 rpm in a table top shaker (Innova 4230, New Brunswick scientific, Edison, N.J.) to reach equilibrium between the two phases. The aqueous and organic phases in each flask were separated by decantation. The aqueous phase was centrifuged (2 minutes on 13,000 rpm with an Eppendorf centrifuge model 5415R) to remove residual extractant phase and the supernatant analyzed for glucose and isobutanol by HPLC.
Partition coefficients (Kp) for isobutanol distribution between the organic and aqueous phases were calculated from the known amount of isobutanol added to the flask and the isobutanol concentration data measured in the aqueous phase. The concentration of isobutanol in the extractant phase was determined by mass balance. The partition coefficient was determined as the ratio of isobutanol concentration in the organic and the aqueous phase, i.e., Kp=[Isobutanol]Organic phase/[isobutanol]Aqueous phase. Each data point corresponding to a specified level of sucrose as shown in Table 3 was repeated twice and values for Kp reported as the average of the two flasks.

[2] = Kp of isobutanol in an oleyl alcohol/aqueous system (general statement); format: physicochemical; conditions: no added osmolyte
Text: Addition of organic extractants like oleyl alcohol into the fermentor during the production stage extracts butanol from the aqueous phase which alleviates its inhibitory effect on the microorganism resulting in higher rate and titer of isobutanol fermentation. Fermentation rate in this two phase system also slows down once the aqueous phase concentration of isobutanol reaches an inhibitory threshold level. In the presence of the extractant (oleyl alcohol) in the fermentor, the aqueous concentration of isobutanol is dictated by the partitioning coefficient (Kp) of isobutanol between the two phases. In the case of an oleyl alcohol/aqueous system, Kp is in the range of 3.5-4.5. A significant increase in isobutanol rate and titer can be achieved if Kp for isobutanol can be increased during fermentation such that the aqueous concentration of isobutanol drops below the inhibitory threshold level.

[3] = Activity of the enzyme expressed from the sadB gene in cell-free extracts; format: biochemical; conditions: cell-free extracts of E. coli Mach1/pTrc99a::sadB; isobutyraldehyde as the standard
Experimental: The sadB coding region was then cloned into the vector pTrc99a (Amann et al., Gene 69: 301-315, 1988). The pCR4Blunt::sadB was digested with EcoRI, releasing the sadB fragment, which was ligated with EcoRI-digested pTrc99a to generate pTrc99a::sadB. This plasmid was transformed into E. coli Mach 1 cells and the resulting transformant was named Mach1/pTrc99a::sadB. The activity of the enzyme expressed from the sadB gene in these cells was determined to be 3.5 mmol/min/mg protein in cell-free extracts when analyzed using isobutyraldehyde as the standard.

Row | Molecule | Kp ([1]; sucrose added 0 moles/L, total sugars 0.17 moles/L) | Kp ([1]; sucrose added 0.03 moles/L, total sugars 0.20 moles/L) | Kp ([1]; sucrose added 0.09 moles/L, total sugars 0.26 moles/L) | Kp ([1]; sucrose added 0.17 moles/L, total sugars 0.34 moles/L) | Kp ([1]; sucrose added 0.26 moles/L, total sugars 0.43 moles/L) | Kp ([1]; sucrose added 0.33 moles/L, total sugars 0.50 moles/L) | Kp ([1]; sucrose added 0.51 moles/L, total sugars 0.68 moles/L) | Kp ([1]; sucrose added 0.67 moles/L, total sugars 0.84 moles/L) | Kp ([1]; sucrose added 1.00 moles/L, total sugars 1.17 moles/L) | Kp ([1]; sucrose added 1.33 moles/L, total sugars 1.50 moles/L) | Kp ([1]; sucrose added 2.00 moles/L, total sugars 2.17 moles/L) | partitioning coefficient (Kp) of isobutanol between the two phases [2] | activity of the enzyme expressed from the sadB gene [3] [mmol/min/mg protein]
1 | CC(C)CO [isobutanol] | 4.35 | 4.44 | 4.41 | 4.60 | 4.69 | 5.09 | 5.21 | 5.85 | 6.85 | 7.77 | 10.69 | 3.5-4.5 | 
2 | B1 |  |  |  |  |  |  |  |  |  |  |  |  | 3.5
